Where a name gives a salt, the structure may show the parent alone.
Experiments:
[1] = physical stability: conversion to a hydrated form during aqueous based processing (wet granulation); assay type: physicochemical; details: during essential manufacturing processes / aqueous based processing steps, e.g. wet granulation; tris salt compared to free acid
[2] = absorption (Cmax, Tmax); assay type: in vivo; details: tris salt compared to free acid
[3] = solubility; assay type: physicochemical; details: tris salt compared to free acid

| physical stability (remains in original form, no conversion by hydration) [1] | Cmax [2] | Tmax ([2]; indicates faster absorption) | solubility [3] | Structure (SMILES) |
| --- | --- | --- | --- | --- |
| readily convert to a hydrated form |  |  |  | CCCCCn1c(=O)[nH]c(=O)c2[nH]c(Cl)nc21 [free acid, 8-chloro-3-pentyl-3,7-dihydro-1H-purine-2,6-dione] |
| enhanced physical stability | increased | decreased | higher solubility than the free acid | CCCCCn1c(=O)[nH]c(=O)c2[nH]c(Cl)nc21 [tris salt, 8-chloro-3-pentyl-3,7-dihydro-1H-purine-2,6-dione trishydroxymethylaminomethane] |
